Results from PMC9564337, “Development of a Neurotensin-Derived ^68Ga-Labeled PET Ligand with High In Vivo Stability for Imaging of NTS1 Receptor-Expressing Tumors” (Cancers, 2022).
Like-named read-outs stand apart in the source and are kept apart here.

Assays:
in vitro = in vitro ADME; conditions: human; for remaining at 1 h, 100 µM: pH 7.4, % Intact Peptide in Plasma after 1 h; for remaining at 6 h, 100 µM: pH 7.4, % Intact Peptide in Plasma after 6 h; for remaining at 24 h, 100 µM: pH 7.4, % Intact Peptide in Plasma after 24 h; for remaining at 48 h, 100 µM: pH 7.4, % Intact Peptide in Plasma after 48 h; for % Intact Peptide in Plasma after 1 h / % Intact Peptide in Plasma after 6 h / % Intact Peptide in Plasma after 24 h / % Intact Peptide in Plasma after 48 h: 100 µM, pH 7.4
Procedure: The concentration of the peptides in plasma/PBS (1:2 v/v) was 80 and 4 μM (recovery determination) or 100 μM (stability tests). Data analysis was based on UV detection at 220 nm (8, 9, 11, 12, 14-18, 21-23, 38-49, and 54-57) or fluorescence detection at 275/305 nm (19 and 20). Reference samples, representing 100% recovery, were prepared in duplicate (8, 9, 11, 14-16, and 19-21) or quadruplicate (12, 17, 18, 22, 23, 38-49, and 54-57). Recovery ratios were obtained by dividing the recovery of the peptide by the recovery of IS for each individual sample (n = 3-5). The obtained recoveries and the recovery ratios are summarized in Table S2, Supplementary Materials. […] Instead, the recovery ratios determined for the previously reported, structurally closely related peptide […] [40] were used for calculating the amount of remaining intact peptide in plasma.

hNTS1R = molecular target: T1, hNTS1R (Homo sapiens, UniProt P30989); assay: radioligand competition binding with [3H]UR-MK300 at intact HT-29 cells
T1 construct: intact HT-29 colon carcinoma cells expressing the hNTS1R; host or cells: HT-29 human colon carcinoma cells
T1 sequence (P30989 whole entry): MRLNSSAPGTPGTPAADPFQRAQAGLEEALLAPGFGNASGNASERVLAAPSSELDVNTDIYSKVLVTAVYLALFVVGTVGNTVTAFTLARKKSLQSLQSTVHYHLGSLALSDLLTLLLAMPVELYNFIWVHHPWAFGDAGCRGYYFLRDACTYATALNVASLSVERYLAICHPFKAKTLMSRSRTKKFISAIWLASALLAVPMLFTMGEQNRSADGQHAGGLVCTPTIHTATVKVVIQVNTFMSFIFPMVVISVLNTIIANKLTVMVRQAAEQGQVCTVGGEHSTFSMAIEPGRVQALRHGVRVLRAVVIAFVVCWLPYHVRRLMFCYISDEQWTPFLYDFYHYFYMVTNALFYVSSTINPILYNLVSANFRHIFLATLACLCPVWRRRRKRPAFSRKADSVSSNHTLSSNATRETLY
Excerpt: Specific binding data (obtained by subtracting unspecific binding from total binding) were normalized (100% = specifically bound radioligand in the absence of competitor) and plotted over log(concentration of competitor) followed by a four-parameter logistic fit (SigmaPlot 12.5, Systat Software, San José, CA, USA) (note: in the case of 40, the lower curve plateau of the sigmoidal fit was constrained to >0). […] The Ki values from individual experiments were transformed to pKi values, followed by the calculation of mean pKi values ± SD.

[1] = [3H]UR-MK300 c = 1 nM, HT-29 cells, 23 °C, read-out: Ki [nM] NTS1R (converted)
[2] = [3H]UR-MK300 c = 1 nM, HT-29 cells, 23 °C, read-out: pKi ± SD NTS1R (converted)

Row | remaining at 1 h, 100 µM (in vitro; plasma) | remaining at 6 h, 100 µM (in vitro; plasma) | remaining at 24 h, 100 µM (in vitro; plasma) | remaining at 48 h, 100 µM (in vitro; plasma) | Ki (hNTS1R; [1]) | Ki (hNTS1R; [2]) | Compound | other results
1 | 99 ± 2% | 57 ± 2% | 3 ± 0.1% | 1.4 ± 0.3% | – | – | CC[C@H](C)[C@H](NC(=O)[C@H](Cc1ccc(O)cc1)NC(=O)[C@@H]1CCCN1C(=O)[C@H](CCCNC(=N)NC(=O)NCCCCN)NC(=O)[C@H](CCCNC(=N)N)NC)C(=O)N[C@@H](CC(C)C)C(=O)O [Compound 9] | –
2 | 97 ± 3% | 97 ± 3% | 94 ± 3% | 91 ± 3% | 2.7 nM | 2.45 nM | CN[C@@H](CCCNC(=N)NC(=O)NCCOCCOCCN)C(=O)N[C@@H](CCCNC(=N)N)C(=O)N1CCC[C@H]1C(=O)N[C@@H](Cc1ccc(O)cc1)C(=O)N[C@H](C(=O)N[C@@H](CC(C)C)C(=O)O)C(C)(C)C [Compound 12] | –
3 | – | – | – | – | – | – | CC[C@H](C)[C@H](NC(=O)[C@H](Cc1ccc(O)cc1)NC(=O)[C@@H]1CCCN1C(=O)[C@H](CCCNC(=N)NC(=O)NCCCCNC(=O)CN1CCN(CC(=O)O)CCN(CC(=O)O)CCN(CC(=O)O)CC1)NC(=O)[C@H](CCCNC(=N)N)NC)C(=O)N[C@@H](CC(C)C)C(=O)O [Compound 15] | % Intact Peptide in Plasma after 1 h (in vitro): 78 ± 1%; % Intact Peptide in Plasma after 6 h (in vitro): 8.3 ± 0.4%
4 | – | 99 ± 1% | – | – | 36 nM | – | CN[C@@H](CCCNC(=N)NC(=O)NCCOCCOCCNC(=O)CN1CCN(CC(=O)O)CCN(CC(=O)O)CCN(CC(=O)O)CC1)C(=O)N[C@@H](CCCNC(=N)N)C(=O)N1CCC[C@H]1C(=O)N[C@@H](Cc1ccc(O)cc1)C(=O)N[C@H](C(=O)N[C@@H](CC(C)C)C(=O)O)C(C)(C)C [Compound 18] | % Intact Peptide in Plasma after 24 h (in vitro): 94 ± 1%; % Intact Peptide in Plasma after 48 h (in vitro): 86 ± 1%
5 | – | – | 15 ± 1% | 4.6 ± 0.1% | – | – | CC[C@H](C)[C@H](NC(=O)[C@H](Cc1ccc(O)cc1)NC(=O)[C@@H]1CCCN1C(=O)[C@H](CCCNC(=N)NC(=O)NCCCCNC(=O)CN1CCN(CC(=O)O)CCN(CC(=O)O)CCN(CC(=O)O)CC1)NC(=O)[C@H](CCCNC(=N)N)NC)C(=O)N[C@@H](CC(C)C)C(=O)O [Compound 20] | % Intact Peptide in Plasma after 1 h (in vitro): >99%; % Intact Peptide in Plasma after 6 h (in vitro): 77 ± 2%
6 | > 99% | – | – | – | 7.5 nM | – | CN[C@@H](CCCNC(N)=NC(=O)NCCOCCOCCNC(=O)CN1CCN(CC(=O)O)CCN(CC(=O)O)CCN(CC(=O)O)CC1)C(=O)N[C@@H](CCCNC(=N)N)C(=O)N1CCC[C@H]1C(=O)N[C@@H](Cc1ccc(O)cc1)C(=O)N[C@H](C(=O)N[C@@H](CC(C)C)C(=O)O)C(C)(C)C [Compound 23] | pKi ± SD NTS1R (hNTS1R; [3H]UR-MK300 c = 1 nM, HT-29 cells, 23 °C): 8.13 ± 0.11; % Intact Peptide in Plasma after 6 h (in vitro): 98 ± 6%; % Intact Peptide in Plasma after 24 h (in vitro): 46 ± 2%; % Intact Peptide in Plasma after 48 h (in vitro): 7.8 ± 0.6%
7 | – | – | – | – | 4.3 nM | 4.27 nM | CN[C@@H](CCCNC(N)=NC(=O)NCCCCNC(=O)[C@H](N)Cc1ccc(-c2ccc(F)cc2)cc1)C(=O)N[C@@H](CCCNC(=N)N)C(=O)N1CCC[C@H]1C(=O)N[C@@H](Cc1ccc(O)cc1)C(=O)N[C@H](C(=O)N[C@@H](CC(C)C)C(=O)O)C(C)(C)C [Compound 25] | –
8 | – | – | – | – | 3.1 nM | 3.02 nM | CN[C@@H](CCCNC(N)=NC(=O)NCCOCCOCCNC(=O)[C@H](N)Cc1ccc(-c2ccc(F)cc2)cc1)C(=O)N[C@@H](CCCNC(=N)N)C(=O)N1CCC[C@H]1C(=O)N[C@@H](Cc1ccc(O)cc1)C(=O)N[C@H](C(=O)N[C@@H](CC(C)C)C(=O)O)C(C)(C)C [Compound 26] | –
9 | – | – | – | – | 12 nM | 10.7 nM | CN[C@@H](CCCNC(N)=NC(=O)NCCOCCOCCNC(=O)[C@@H](Cc1ccc(-c2ccc(F)cc2)cc1)NC(=O)CCCCCNC(=O)CN1CCN(CC(=O)O)CCN(CC(=O)O)CCN(CC(=O)O)CC1)C(=O)N[C@@H](CCCNC(=N)N)C(=O)N1CCC[C@H]1C(=O)N[C@@H](Cc1ccc(O)cc1)C(=O)N[C@H](C(=O)N[C@@H](CC(C)C)C(=O)O)C(C)(C)C [Compound 32] | –
10 | – | – | – | – | – | – | CN[C@@H](CCCNC(N)=NC(=O)NCCOCCOCCNC(=O)[C@@H](Cc1ccc(-c2ccc(F)cc2)cc1)NC(=O)CCCCCNC(=O)CN1CCN(CC(=O)O)CCN(CC(=O)O)CCN(CC(=O)O)CC1)C(=O)N[C@@H](CCCNC(=N)N)C(=O)N1CCC[C@H]1C(=O)N[C@@H](Cc1ccc(O)cc1)C(=O)N[C@H](C(=O)N[C@@H](CC(C)C)C(=O)O)C(C)(C)C [Compound 33] | increase in NTS1R affinity upon insertion of Ga3+ (hNTS1R; versus the precursor with empty DOTA chelator (32 or 54)): 4.8 fold
11 | – | – | – | – | 10 nM | 10.2 nM | CN[C@@H](CCCNC(N)=NC(=O)NCCCCNC(=O)[C@@H](Cc1ccc(-c2ccc(F)cc2)cc1)NC(=O)CN1CCN(CC(=O)O)CCN(CC(=O)O)CCN(CC(=O)O)CC1)C(=O)N[C@@H](CCCNC(=N)N)C(=O)N1CCC[C@H]1C(=O)N[C@@H](Cc1ccc(O)cc1)C(=O)N[C@H](C(=O)N[C@@H](CC(C)C)C(=O)O)C(C)(C)C [Compound 34] | –
12 | – | – | – | – | 14 nM | 13.5 nM | CN[C@@H](CCCNC(N)=NC(=O)NCCOCCOCCNC(=O)[C@@H](Cc1ccc(-c2ccc(F)cc2)cc1)NC(=O)CN1CCN(CC(=O)O)CCN(CC(=O)O)CCN(CC(=O)O)CC1)C(=O)N[C@@H](CCCNC(=N)N)C(=O)N1CCC[C@H]1C(=O)N[C@@H](Cc1ccc(O)cc1)C(=O)N[C@H](C(=O)N[C@@H](CC(C)C)C(=O)O)C(C)(C)C [Compound 35] | –
13 | 92 ± 1% | 87 ± 1% | 70 ± 1% | 52 ± 1% | 4.8 nM | 4.68 nM | CC[C@@H](C)[C@H](NC(=O)[C@H](Cc1ccc(O)cc1)NC(=O)[C@@H]1CCCN1C(=O)[C@H](CCCNC(=N)N)NC(=O)[C@H](CCCNC(=N)N)NC)C(=O)N[C@@H](CC(C)C)C(=O)O [Compound 38] | –
14 | 89 ± 1% | 88 ± 1% | 81 ± 1% | 73 ± 1% | – | – | CC[C@H](C)[C@H](NC(=O)[C@H](Cc1ccc(O)cc1)NC(=O)[C@@H]1CCCN1C(=O)[C@H](CCCNC(=N)N)NC(=O)[C@H](CCCNC(=N)N)NC)C(=O)N[C@@](C)(CC(C)C)C(=O)O [Compound 47] | –
15 | 90 ± 4% | 97 ± 6% | 92 ± 1% | 92 ± 1% | – | – | CC[C@H](C)[C@H](NC(=O)[C@@H](NC(=O)[C@@H]1CCCN1C(=O)[C@H](CCCNC(=N)N)NC(=O)[C@H](CCCNC(=N)N)NC)C(C)(C)c1ccc(O)cc1)C(=O)N[C@@H](CC(C)C)C(=O)O [Compound 48] | –
16 | 96 ± 2% | 96 ± 1% | 94 ± 5% | 95 ± 2% | – | – | CC[C@H](C)[C@H](NC(=O)[C@H](NC(=O)[C@@H]1CCCN1C(=O)[C@H](CCCNC(=N)N)NC(=O)[C@H](CCCNC(=N)N)NC)C(C)(C)c1ccc(O)cc1)C(=O)N[C@@H](CC(C)C)C(=O)O [Compound 49] | –
17 | – | – | – | – | 85 nM | 79.4 nM | CN[C@@H](CCCNC(=N)NC(=O)NCCCCNC(=O)CN1CCN(CC(=O)O)CCN(CC(=O)O)CCN(CC(=O)O)CC1)C(=O)N[C@@H](CCCNC(=N)N)C(=O)N1CCC[C@H]1C(=O)N[C@H](C(=O)N[C@H](C(=O)N[C@@H](CC(C)C)C(=O)O)C(C)(C)C)C(C)(C)c1ccc(O)cc1 [Compound 55] | –
18 | > 99% | > 99% | 77 ± 1% | < 1% | – | – | CC[C@H](C)[C@H](NC(=O)[C@@H](NC(=O)[C@@H]1CCCN1C(=O)[C@H](CCCNC(=N)N)NC(=O)[C@H](CCCNC(N)=NC(=O)NCCCCNC(=O)CN1CCN(CC(=O)O)CCN(CC(=O)O)CCN(CC(=O)O)CC1)NC)C(C)(C)c1ccc(O)cc1)C(=O)N[C@@H](CC(C)C)C(=O)O [Compound 56] | half-life at 100 µM (in vitro; plasma): > 24 h
